Results published in BindingDB's records for doi:10.1016/j.chembiol.2009.07.006 (Burnham Institute For Medical Research, 2009).
pKi: −log10 of the molar value. Several values for one entry are separate records, joined by “and”; a condition that tells them apart may be missing. Equal entries are not always repeated.

Target: T1, Nicotinate-nucleotide adenylyltransferase (Escherichia coli (strain K12), UniProt P0A752)
T1 sequence (P0A752 whole entry): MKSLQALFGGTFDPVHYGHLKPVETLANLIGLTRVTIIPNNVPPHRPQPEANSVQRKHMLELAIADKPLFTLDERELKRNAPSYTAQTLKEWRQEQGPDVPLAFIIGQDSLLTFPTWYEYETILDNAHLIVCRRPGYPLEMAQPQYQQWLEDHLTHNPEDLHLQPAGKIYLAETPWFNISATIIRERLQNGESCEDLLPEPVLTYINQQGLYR
Experiment: Enzymatic Inhibition Assay
From the text: The enzymatic assay was masured at fixed NaMN and ATP concentration (equal to two-fold km values)with various concentration of inhibitory compounds.

O=C(CCC(=O)Nc1cccc(Cl)c1)NN=Cc1c2ccccc2cc2ccccc12 [NadD inhibitor 1_02]
pKi: 5.10 and 5.30
